{
  "source": "paper PMC3651882",
  "about": "(Bioconjugate chemistry, 2013)",
  "format_in_all_cases": "cell-based, human",
  "key": {"KB-V1 cells [1]": {"test_system": "KB-V1 cells", "experiment": "Cellular uptake by flow cytometry", "settings": "for Time dependence of cell fluorescence intensity (in words): 5 μM, 1, 2 and 4 h"}, "KB-3-1 cells [2]": {"test_system": "KB-3-1 cells", "experiment": "Cellular uptake by flow cytometry", "settings": "2.5-15 μM, 2 h"}, "KB-3-1 cells [3]": {"test_system": "KB-3-1 cells", "experiment": "Cytotoxicity, SRB method", "settings": "50 NM as printed, 2 h incubation"}, "KB-V1 cells [4]": {"test_system": "KB-V1 cells", "experiment": "Cytotoxicity, SRB method", "settings": "50 μM, 2 h incubation"}, "KB-3-1 cells [5]": {"test_system": "KB-3-1 cells", "experiment": "Subcellular colocalization, confocal microscopy", "settings": "15 μM, 2 h, Lysotracker Green, Hoechst 33342"}, "KB-V1 cells [6]": {"test_system": "KB-V1 cells", "experiment": "Subcellular colocalization, confocal microscopy", "settings": "15 μM, 2 h, Lysotracker Green, Hoechst 33342"}},
  "data": [
    {"smiles": "O=C(O)c1ccc2c(c1)C(=O)OC21c2ccc(O)cc2Oc2cc(O)ccc21", "note": "[5-FAM, 5-carboxyfluorescein]", "values": [
      {"measurement": "Time dependence of cell fluorescence intensity (in words)", "setting": "KB-V1 cells [1]", "value": "did not change with time"}
    ]},
    {"smiles": "COc1cccc2c1C(=O)c1c(O)c3c(c(O)c1C2=O)C[C@@](O)(C(=O)CO)C[C@@H]3O[C@H]1C[C@H](N)[C@H](O)[C@H](C)O1", "note": "[Dox, doxorubicin]", "values": [
      {"measurement": "Time dependence of cell fluorescence intensity (in words)", "setting": "KB-V1 cells [1]", "value": "did not change with time"},
      {"measurement": "Cellular uptake (in words)", "setting": "KB-V1 cells [1]; 2.5-15 μM, 2 h", "value": "greatly inhibited"},
      {"measurement": "Cellular uptake (in words)", "setting": "KB-3-1 cells [2]", "value": "very efficient"},
      {"measurement": "Cytotoxicity (in words)", "setting": "KB-3-1 cells [3]", "value": "nearly all the cells were killed"},
      {"measurement": "Cytotoxicity (in words)", "setting": "KB-V1 cells [4]", "value": "no significant cytotoxicity"},
      {"measurement": "Cells killed (cell death)", "setting": "KB-V1 cells [4]; then 46 h fresh medium, SRB", "value": 14, "unit": "%"},
      {"measurement": "Subcellular location (in words)", "setting": "KB-3-1 cells [5]", "value": "no preference to accumulate in any subcellular organelles"},
      {"measurement": "Subcellular location (in words)", "setting": "KB-V1 cells [6]", "value": "dim red fluorescence was observed only on the membrane"}
    ]}
  ]
}
